The subject of the test is CD4+CD25+FoxP3+ regulatory T cells and CD8+ T cells. Description: Flow cytometry of CD8+ T cell and Treg subsets during an immunochemotherapy cycle. The settings on record: day 12 of temozolomide cycle (5/21 schedule), vaccine on day 19. The class given is in vivo, human. The text has this:
To characterize the response of the various T cell populations during a cycle of temozolomide (5/21 schedule) and concurrently administered vaccine (day 19 on this example), we obtained peripheral blood on days 0, 3, 5, 12, 19, 23, 25 and 26. By flow analysis cytometry, we investigated the percentage of the CD8+ T cell and CD4+CD25+FoxP3+ regulatory T cells subsets during an immunochemotherapy cycle. All fluorescence-conjugated monoclonal antibodies (mAb) (PerCP-Cy5.5-CD3, FITC-CD8, APC-CD4 and PE-CD25) were purchased from BD Biosciences except the FITC-labeled mAb of FoxP3 was made by eBioscience. The surface and intracellular staining of peripheral blood cells were performed according to the standard procedures provided by the manufacturer. Results were analyzed by FACSCalibur flow cytometer using Cellquest Pro software (BD Biosciences). In contrast to the decline of the CD8+ T cell subset, the Treg population started to increase after the administration of temozolomide for 3 days and reached its peak (0.9% of total CD4^+ T cells) on day 12. The Tregs then began to drop until day 23 while the CD8^+ T cell numbers started to recover. At the end of the course, both of CD8^+ T cell and Treg populations recovered to pre-treatment levels.

As to `Cn1nnc2c(C(N)=O)ncn2c1=O` [temozolomide], the Treg population peak is 0.9 % of total CD4+ T cells.

For the origin of these results see patent publication US9399662B2, “Concurrent chemotherapy and immunotherapy” (Duke University, priority 2005, dated 2016).
